Test results from ChEMBL document CHEMBL1201862, “PubChem BioAssay data set” (2004).
One block for each compound: values may come before it. Calls of active or inactive are those of the source. Unless noted, no cut-off for these calls is given here.

Legend:
[1] = decrease of PhoP-driven GFP reporter signal, S. Typhimurium, dose response, PhoP regulon inhibitor project, purified and synthesized compounds, set 2 (AID 2831); type: functional
[2] = (§1) Late stage assay provider results from the probe development effort to identify inhibitors of Protein Phosphatase Methylesterase 1 (PME-1): luminescence-based biochemical dose response assay to determine cytotoxicity of inhibitor compounds. [Related pubchem assays (depositor defined):AID2130, AID2143, AID2171, AID2174, AID2177, AID2232, AID2233, AID2291, AID2363, AID2365, AID2366, AID2368, AID2369, AID2371, AID463124, AID463130, AID463131, AID463132, AID463146, AID463149] Panel member name: Fetal Calf Serum; type: toxicity
Fatty acid synthase [3] = molecular target: T1, Fatty acid synthase (Homo sapiens, UniProt P49327); experiment: FAS thioesterase domain inhibitors, dose response, biochemical, kinetic fluorescence intensity (AID 624326); type: functional;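 note: rate of fluorescence rise from hydrolysis of a fluorogenic O-methyl fluorescein ester substrate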
T1 sequence (P49327 whole entry, the tested form may be a part): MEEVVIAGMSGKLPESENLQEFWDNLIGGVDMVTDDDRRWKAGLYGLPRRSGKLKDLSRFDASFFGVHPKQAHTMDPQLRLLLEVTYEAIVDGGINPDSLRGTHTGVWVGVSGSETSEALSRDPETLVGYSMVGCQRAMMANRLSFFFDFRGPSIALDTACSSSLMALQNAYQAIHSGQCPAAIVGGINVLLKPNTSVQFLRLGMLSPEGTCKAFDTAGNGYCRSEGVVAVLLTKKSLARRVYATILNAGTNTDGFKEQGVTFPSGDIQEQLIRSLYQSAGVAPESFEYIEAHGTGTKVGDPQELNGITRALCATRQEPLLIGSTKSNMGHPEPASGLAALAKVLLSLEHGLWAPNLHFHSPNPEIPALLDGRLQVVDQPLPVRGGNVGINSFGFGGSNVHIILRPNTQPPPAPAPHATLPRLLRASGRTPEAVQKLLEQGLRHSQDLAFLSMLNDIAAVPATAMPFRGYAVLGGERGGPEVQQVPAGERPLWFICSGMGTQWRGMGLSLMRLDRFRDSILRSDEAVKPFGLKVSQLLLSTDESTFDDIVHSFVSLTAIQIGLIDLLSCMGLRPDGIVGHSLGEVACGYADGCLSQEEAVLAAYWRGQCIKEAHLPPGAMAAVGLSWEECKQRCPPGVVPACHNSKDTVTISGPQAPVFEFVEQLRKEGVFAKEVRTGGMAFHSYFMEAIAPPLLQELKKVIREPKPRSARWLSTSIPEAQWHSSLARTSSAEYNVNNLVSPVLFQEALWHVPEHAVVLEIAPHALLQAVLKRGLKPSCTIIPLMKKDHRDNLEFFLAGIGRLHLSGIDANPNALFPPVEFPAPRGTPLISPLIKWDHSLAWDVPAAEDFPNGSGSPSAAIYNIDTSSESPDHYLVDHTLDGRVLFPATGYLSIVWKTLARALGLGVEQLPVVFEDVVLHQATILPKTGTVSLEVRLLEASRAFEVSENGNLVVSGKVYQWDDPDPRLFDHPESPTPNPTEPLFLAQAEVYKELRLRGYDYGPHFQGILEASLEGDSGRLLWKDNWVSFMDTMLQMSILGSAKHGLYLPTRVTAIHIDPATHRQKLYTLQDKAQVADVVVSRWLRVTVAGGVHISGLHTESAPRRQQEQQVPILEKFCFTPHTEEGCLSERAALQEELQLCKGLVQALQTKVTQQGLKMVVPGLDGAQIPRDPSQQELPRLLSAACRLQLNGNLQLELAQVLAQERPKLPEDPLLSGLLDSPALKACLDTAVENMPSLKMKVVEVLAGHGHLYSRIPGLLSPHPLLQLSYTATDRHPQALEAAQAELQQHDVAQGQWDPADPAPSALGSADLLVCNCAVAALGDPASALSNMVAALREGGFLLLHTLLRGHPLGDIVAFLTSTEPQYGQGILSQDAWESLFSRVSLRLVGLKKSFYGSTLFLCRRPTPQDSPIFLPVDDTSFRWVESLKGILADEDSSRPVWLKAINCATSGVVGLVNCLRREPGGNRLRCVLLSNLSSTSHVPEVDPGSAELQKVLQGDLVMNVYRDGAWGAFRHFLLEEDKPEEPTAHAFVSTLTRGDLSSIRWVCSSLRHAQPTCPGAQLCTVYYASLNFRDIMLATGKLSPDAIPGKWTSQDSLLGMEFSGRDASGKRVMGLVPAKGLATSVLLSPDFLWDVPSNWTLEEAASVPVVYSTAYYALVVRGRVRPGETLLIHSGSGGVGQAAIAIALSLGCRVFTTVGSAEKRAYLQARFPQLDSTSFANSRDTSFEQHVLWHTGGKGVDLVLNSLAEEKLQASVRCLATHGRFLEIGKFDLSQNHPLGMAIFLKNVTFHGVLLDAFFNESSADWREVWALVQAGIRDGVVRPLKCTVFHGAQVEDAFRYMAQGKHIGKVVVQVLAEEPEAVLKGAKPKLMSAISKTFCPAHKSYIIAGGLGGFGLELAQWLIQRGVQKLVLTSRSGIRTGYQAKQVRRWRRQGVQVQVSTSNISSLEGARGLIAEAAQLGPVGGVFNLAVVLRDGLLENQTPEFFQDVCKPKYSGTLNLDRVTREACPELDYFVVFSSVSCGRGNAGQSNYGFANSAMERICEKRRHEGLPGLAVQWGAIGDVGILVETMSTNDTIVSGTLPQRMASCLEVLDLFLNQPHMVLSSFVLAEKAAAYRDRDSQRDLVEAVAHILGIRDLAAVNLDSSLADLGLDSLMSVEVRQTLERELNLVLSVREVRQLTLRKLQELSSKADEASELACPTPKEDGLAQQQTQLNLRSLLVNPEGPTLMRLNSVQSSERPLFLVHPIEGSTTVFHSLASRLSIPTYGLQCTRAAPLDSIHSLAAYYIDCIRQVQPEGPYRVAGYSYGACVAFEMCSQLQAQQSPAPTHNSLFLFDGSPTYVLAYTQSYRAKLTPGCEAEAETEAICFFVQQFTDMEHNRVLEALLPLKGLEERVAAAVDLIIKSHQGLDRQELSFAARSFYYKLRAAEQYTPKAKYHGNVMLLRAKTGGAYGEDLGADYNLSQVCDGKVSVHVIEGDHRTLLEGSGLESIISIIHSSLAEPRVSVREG

Fatty acid synthase [4] = molecular target: T1, Fatty acid synthase; experiment: FAS thioesterase domain inhibitors, dose response, biochemical, endpoint fluorescence intensity, uHTS hits (AID 624327); type: functional;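 note: fluorescence from hydrolysis of an O-methyl fluorescein acyl ester substrate by the enzyme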
[5] = as §1, with “Serum-free Media” for “Fetal Calf Serum”; type: toxicity
H9c2 = experiment: cells; type: functional, cell-based; conditions: Rattus norvegicus, H9c2, Myocardium;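 note: confirmatory concentration-response retest of ultra-high-throughput screening hits for modulation of myocardial damage; cell death induced by hydrogen peroxide oxidative stress; compound pretreatment for 60 min then peroxide exposure for 2 h; potency is for protecting the cells against peroxide damage rather than for killing them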
[6] = molecular target: Sphingosine 1-phosphate receptor 4 (Homo sapiens, UniProt O95977); experiment: Fluorescence dose response cell-based high throughput screening assay for agonists of the Sphingosine 1-Phosphate Receptor 4 (S1P4). [Related pubchem assays: 1509 (Primary screen.), 1523 (Confirmation screen in triplicates.)]; type: functional
Sequence of Sphingosine 1-phosphate receptor 4 (O95977 whole entry): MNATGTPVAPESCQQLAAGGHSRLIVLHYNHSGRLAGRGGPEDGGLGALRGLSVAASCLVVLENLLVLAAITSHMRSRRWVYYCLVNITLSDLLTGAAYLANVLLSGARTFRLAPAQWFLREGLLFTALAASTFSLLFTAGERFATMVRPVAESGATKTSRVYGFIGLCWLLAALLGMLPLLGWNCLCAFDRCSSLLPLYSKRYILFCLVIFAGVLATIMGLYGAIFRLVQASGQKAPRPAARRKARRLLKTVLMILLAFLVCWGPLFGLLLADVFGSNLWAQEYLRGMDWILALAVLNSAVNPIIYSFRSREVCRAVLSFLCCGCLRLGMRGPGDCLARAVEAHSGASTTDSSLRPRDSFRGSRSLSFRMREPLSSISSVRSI

[7] = molecular target: Sphingosine 1-phosphate receptor 1 (Homo sapiens, UniProt P21453); experiment: Fluorescence-based counterscreen assay for S1P4 agonists: Cell-based dose response high throughput screening assay to identify agonists of the Sphingosine 1-Phosphate Receptor 1 (S1P1). [Related pubchem assays (depositor defined):AID1509, AID1523, AID1801, AID463107, AID463118, AID463119, AID463122, AID463123, AID463129, AID463225, AID504400, AID504460]; type: functional
Sequence of Sphingosine 1-phosphate receptor 1 (P21453 whole entry): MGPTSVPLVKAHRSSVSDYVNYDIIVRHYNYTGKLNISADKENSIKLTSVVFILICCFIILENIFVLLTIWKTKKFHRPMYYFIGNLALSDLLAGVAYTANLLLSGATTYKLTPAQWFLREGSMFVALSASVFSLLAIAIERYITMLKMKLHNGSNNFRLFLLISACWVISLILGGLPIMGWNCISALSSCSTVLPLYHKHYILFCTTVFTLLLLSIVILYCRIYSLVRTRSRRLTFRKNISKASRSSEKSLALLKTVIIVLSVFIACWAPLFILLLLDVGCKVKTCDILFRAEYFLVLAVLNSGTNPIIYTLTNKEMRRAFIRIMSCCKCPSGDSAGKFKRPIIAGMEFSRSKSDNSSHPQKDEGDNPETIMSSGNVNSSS

[8] = molecular target: T2, Tyrosine-protein phosphatase non-receptor type 7 (Homo sapiens, UniProt P35236); type: functional
T2 sequence (P35236 whole entry): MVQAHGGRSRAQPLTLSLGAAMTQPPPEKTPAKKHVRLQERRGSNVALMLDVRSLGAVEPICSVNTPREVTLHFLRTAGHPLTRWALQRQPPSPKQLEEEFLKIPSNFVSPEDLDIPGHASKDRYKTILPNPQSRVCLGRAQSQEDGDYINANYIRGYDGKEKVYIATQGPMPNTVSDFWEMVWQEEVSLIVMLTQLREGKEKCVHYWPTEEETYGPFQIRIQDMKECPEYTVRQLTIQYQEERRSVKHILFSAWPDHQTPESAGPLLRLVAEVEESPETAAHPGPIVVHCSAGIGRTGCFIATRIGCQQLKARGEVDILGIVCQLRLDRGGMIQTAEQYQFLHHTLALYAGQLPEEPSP

[9] = molecular target: T3, Tyrosine-protein phosphatase non-receptor type 22 (Homo sapiens, UniProt Q9Y2R2); type: functional
T3 sequence (Q9Y2R2 whole entry): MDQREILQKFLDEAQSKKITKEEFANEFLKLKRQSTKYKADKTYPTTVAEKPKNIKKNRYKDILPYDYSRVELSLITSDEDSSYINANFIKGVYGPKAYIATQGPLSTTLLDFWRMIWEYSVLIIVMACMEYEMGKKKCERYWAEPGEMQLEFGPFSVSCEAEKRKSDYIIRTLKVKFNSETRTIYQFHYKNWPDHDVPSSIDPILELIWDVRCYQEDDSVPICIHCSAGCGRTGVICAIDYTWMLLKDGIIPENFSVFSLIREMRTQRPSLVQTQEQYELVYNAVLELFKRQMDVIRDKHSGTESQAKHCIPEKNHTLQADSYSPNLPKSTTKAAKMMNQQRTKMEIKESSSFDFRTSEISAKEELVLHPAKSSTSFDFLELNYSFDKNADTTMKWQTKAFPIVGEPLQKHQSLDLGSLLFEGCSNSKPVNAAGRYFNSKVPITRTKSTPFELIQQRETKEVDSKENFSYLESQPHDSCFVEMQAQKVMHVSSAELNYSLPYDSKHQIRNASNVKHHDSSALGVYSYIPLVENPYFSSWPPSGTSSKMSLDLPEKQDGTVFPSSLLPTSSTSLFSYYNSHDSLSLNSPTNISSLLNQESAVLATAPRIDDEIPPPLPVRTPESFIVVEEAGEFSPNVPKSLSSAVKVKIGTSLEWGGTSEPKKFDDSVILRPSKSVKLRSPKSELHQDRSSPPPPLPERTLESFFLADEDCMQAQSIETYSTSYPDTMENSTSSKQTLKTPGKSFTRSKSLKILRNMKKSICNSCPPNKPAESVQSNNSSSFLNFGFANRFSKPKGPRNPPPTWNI

[10] = molecular target: T3, Tyrosine-protein phosphatase non-receptor type 22; type: functional; remark: listed apart in the source

IC50 [1]: > 150 µM (active)
SMILES: COc1ccc(CNC(=S)Nc2ccncc2)cc1

SMILES: COC(=O)N1C(=O)[C@](c2ccccc2)(C2CCCCC2)N1C(=O)OC
CC50 [2]: > 10 µM (inactive)
IC50 (Fatty acid synthase [3]): 0.968 µM (active)
IC50 (Fatty acid synthase [4]): 0.929 µM (active)
CC50 [5]: > 10 µM (inactive)
IC50 (H9c2): 25.5 µM (active)

EC50 [6]: > 16.6 µM (not active)
EC50 [7]: > 49.8 µM (inactive)
SMILES: CCOC(=O)c1c(-n2c(C)cc(C=O)c2C)sc2c1CCCC2

IC50 [8]: > 79.4 µM (inactive)
IC50 [9]: > 79.4 µM (inactive)
IC50 [10]: > 79.4 µM (inactive)
SMILES: Cc1ccc2nc(O)cc(C(=O)OCC(=O)c3ccccc3)c2c1
